Source: patent US11484539B2, “Compounds and their uses for alleviating menopause-associated symptoms” (Estetra SPRL, priority 2018, dated 2022)

System: post-menopausal women
Experiment: Hot Flush Weekly Weighted Score, dose-finding study
Format: in vivo
Conditions: for Relative change in Hot Flush Weekly Weighted Score, LS adjusted mean: analysis with placebo grouped with 2.5 and 5 mg; for LS adjusted mean change from baseline in Hot Flush Weekly Weighted Score: 15 mg E4; for Covariate significance, covariate trt1, p_value, relative change in Hot Flush Weekly Weighted Score: 15 mg vs placebo grouped with 2.5 and 5 mg
Description: Further, the terms “Hot Flush Weekly Weighted Score”, as used herein, corresponds to a score taking into account frequency and severity which is calculated by using the severity score (as calculated above): [(1× No. of mild VMS)+(2× No. of moderate VMS)+(3× No. of severe VMS)] during a 7 day period.
Such a weighted score was for example used by Notelovitz et al. (“Initial 17β-Estradiol Dose for Treating Vasomotor Symptoms”; Obstetrics and Gynaecology, Vol. 95(5), May 2000, p. 726-731). This score was used to generate the data included in Example 1 further below, under section A. c) “Hot Flush Weekly Weighted Score”.

## C[C@]12CC[C@@H]3c4ccc(O)cc4CC[C@H]3[C@@H]1[C@@H](O)[C@@H](O)[C@@H]2O [E4, 1,3,5 (10)-estratrien-3,15alpha,16alpha,17beta-tetrol]
10 mg E4 QD per os, week 9
  Relative change (% from baseline) in Hot Flush Weekly Weighted Score, mean: −67%
10 mg E4 QD per os, week 10
  Mean change from baseline in Hot Flush Weekly Weighted Score: −109.514
  Relative change (% from baseline) in Hot Flush Weekly Weighted Score, mean: −68%
10 mg E4 QD per os, week 11
  Mean change from baseline in Hot Flush Weekly Weighted Score: −109.532
  Relative change (% from baseline) in Hot Flush Weekly Weighted Score, mean: −69%
10 mg E4 QD per os, week 12
  Mean change from baseline in Hot Flush Weekly Weighted Score: −111.764
  Relative change (% from baseline) in Hot Flush Weekly Weighted Score, mean: −70%
10 mg E4 vs placebo, week 4
  Difference with placebo, LS adjusted mean, absolute change in Hot Flush Weekly Weighted Score: −7.296
10 mg E4 vs placebo, week 12
  Difference with placebo, LS adjusted mean, absolute change in Hot Flush Weekly Weighted Score: −5.078
10.0 mg vs 0 mg, week 4
  Differences with placebo (including ineffective doses 2.5 mg and 5 mg), relative change in Hot Flush Weekly Weighted Score, LS adjusted mean: −0.06006
  Differences with placebo (including ineffective doses 2.5 mg and 5 mg), relative change in Hot Flush Weekly Weighted Score, p_value: 0.4167
  Differences with placebo, relative change in weekly weighted score, p_value: 0.6745
10.0 mg vs 0 mg, week 12
  Differences with placebo (including ineffective doses 2.5 mg and 5 mg), relative change in Hot Flush Weekly Weighted Score, LS adjusted mean: −0.08625
  Differences with placebo (including ineffective doses 2.5 mg and 5 mg), relative change in Hot Flush Weekly Weighted Score, p_value: 0.1404
  Differences with placebo, relative change in weekly weighted score, p_value: 0.7861
10 mg, Week 12
  Relative change (% from baseline) in Hot Flush Weekly Weighted Score, mean: −69%
  Relative change (% from baseline) in weekly weighted score, LS adjusted mean: −0.6994
10 mg, week 0
  Relative change (% from baseline) in Hot Flush Weekly Weighted Score, mean: 0%
10 mg, week 1
  Relative change (% from baseline) in Hot Flush Weekly Weighted Score, mean: −20%
10 mg, week 2
  Relative change (% from baseline) in Hot Flush Weekly Weighted Score, mean: −34%
10 mg, week 3
  Relative change (% from baseline) in Hot Flush Weekly Weighted Score, mean: −46%
10 mg, week 4
  Relative change (% from baseline) in Hot Flush Weekly Weighted Score, mean: −53%
  Relative change (% from baseline) in weekly weighted score, LS adjusted mean: −0.5419
  Relative change in Hot Flush Weekly Weighted Score, LS adjusted mean: −0.5137
10 mg, week 5
  Relative change (% from baseline) in Hot Flush Weekly Weighted Score, mean: −57%
10 mg, week 6
  Relative change (% from baseline) in Hot Flush Weekly Weighted Score, mean: −62%
10 mg, week 7
  Relative change (% from baseline) in Hot Flush Weekly Weighted Score, mean: −64%
10 mg, week 8
  Relative change (% from baseline) in Hot Flush Weekly Weighted Score, mean: −66%
10 mg, week 9
  Relative change (% from baseline) in Hot Flush Weekly Weighted Score, mean: −66%
10 mg, week 10
  Relative change (% from baseline) in Hot Flush Weekly Weighted Score, mean: −68%
10 mg, week 11
  Relative change (% from baseline) in Hot Flush Weekly Weighted Score, mean: −68%
10 mg, week 12
  Relative change in Hot Flush Weekly Weighted Score, LS adjusted mean: −0.6776
Week 4
  LS adjusted mean change from baseline in Hot Flush Weekly Weighted Score: −106.3
Week 12
  LS adjusted mean change from baseline in Hot Flush Weekly Weighted Score: −130.6
15 mg E4 QD per os, week 0
  Mean change from baseline in Hot Flush Weekly Weighted Score: 2.219
15 mg E4 QD per os, week 1
  Mean change from baseline in Hot Flush Weekly Weighted Score: −33.1745
  Relative change (% from baseline) in Hot Flush Weekly Weighted Score, mean: −19%
15 mg E4 QD per os, week 2
  Mean change from baseline in Hot Flush Weekly Weighted Score: −67.6983
  Relative change (% from baseline) in Hot Flush Weekly Weighted Score, mean: −43%
15 mg E4 QD per os, week 3
  Mean change from baseline in Hot Flush Weekly Weighted Score: −85.1915
  Relative change (% from baseline) in Hot Flush Weekly Weighted Score, mean: −56%
15 mg E4 QD per os, week 4
  Mean change from baseline in Hot Flush Weekly Weighted Score: −98.8329
  Relative change (% from baseline) in Hot Flush Weekly Weighted Score, mean: −66%
15 mg E4 QD per os, week 5
  Mean change from baseline in Hot Flush Weekly Weighted Score: −105.223
  Relative change (% from baseline) in Hot Flush Weekly Weighted Score, mean: −70%
15 mg E4 QD per os, week 6
  Mean change from baseline in Hot Flush Weekly Weighted Score: −110.268
  Relative change (% from baseline) in Hot Flush Weekly Weighted Score, mean: −74%
15 mg E4 QD per os, week 7
  Mean change from baseline in Hot Flush Weekly Weighted Score: −115.263
  Relative change (% from baseline) in Hot Flush Weekly Weighted Score, mean: −78%
15 mg E4 QD per os, week 8
  Mean change from baseline in Hot Flush Weekly Weighted Score: −115.656
  Relative change (% from baseline) in Hot Flush Weekly Weighted Score, mean: −78%
15 mg E4 QD per os, week 9
  Mean change from baseline in Hot Flush Weekly Weighted Score: −118.578
  Relative change (% from baseline) in Hot Flush Weekly Weighted Score, mean: −80%
15 mg E4 QD per os, week 10
  Mean change from baseline in Hot Flush Weekly Weighted Score: −116.853
  Relative change (% from baseline) in Hot Flush Weekly Weighted Score, mean: −79%
15 mg E4 QD per os, week 11
  Mean change from baseline in Hot Flush Weekly Weighted Score: −119.365
  Relative change (% from baseline) in Hot Flush Weekly Weighted Score, mean: −80%
15 mg E4 QD per os, week 12
  Mean change from baseline in Hot Flush Weekly Weighted Score: −121.777
  Relative change (% from baseline) in Hot Flush Weekly Weighted Score, mean: −82%
15 mg E4 vs placebo, week 4
  Difference with placebo, LS adjusted mean, absolute change in Hot Flush Weekly Weighted Score: −28.06
15 mg E4 vs placebo, week 12
  Difference with placebo, LS adjusted mean, absolute change in Hot Flush Weekly Weighted Score: −25.91
15.0 mg vs 0 mg, week 4
  Differences with placebo (including ineffective doses 2.5 mg and 5 mg), relative change in Hot Flush Weekly Weighted Score, LS adjusted mean: −0.1788
  Differences with placebo (including ineffective doses 2.5 mg and 5 mg), relative change in Hot Flush Weekly Weighted Score, p_value: 0.00178
  Differences with placebo, relative change in weekly weighted score, p_value: 0.0267
15.0 mg vs 0 mg, week 12
  Differences with placebo (including ineffective doses 2.5 mg and 5 mg), relative change in Hot Flush Weekly Weighted Score, LS adjusted mean: −0.177
  Differences with placebo (including ineffective doses 2.5 mg and 5 mg), relative change in Hot Flush Weekly Weighted Score, p_value: 0.00097
  Differences with placebo, relative change in weekly weighted score, p_value: 0.0276
15 mg, Week 12
  Relative change (% from baseline) in Hot Flush Weekly Weighted Score, mean: −81%
  Relative change (% from baseline) in weekly weighted score, LS adjusted mean: −0.8122
15 mg, week 0
  Relative change (% from baseline) in Hot Flush Weekly Weighted Score, mean: 0%
15 mg, week 1
  Relative change (% from baseline) in Hot Flush Weekly Weighted Score, mean: −22%
15 mg, week 2
  Relative change (% from baseline) in Hot Flush Weekly Weighted Score, mean: −45%
15 mg, week 3
  Relative change (% from baseline) in Hot Flush Weekly Weighted Score, mean: −56%
15 mg, week 4
  Relative change (% from baseline) in Hot Flush Weekly Weighted Score, mean: −66%
  Relative change (% from baseline) in weekly weighted score, LS adjusted mean: −0.6503
  Relative change in Hot Flush Weekly Weighted Score, LS adjusted mean: −0.6324
15 mg, week 5
  Relative change (% from baseline) in Hot Flush Weekly Weighted Score, mean: −70%
15 mg, week 6
  Relative change (% from baseline) in Hot Flush Weekly Weighted Score, mean: −72%
15 mg, week 7
  Relative change (% from baseline) in Hot Flush Weekly Weighted Score, mean: −75%
15 mg, week 8
  Relative change (% from baseline) in Hot Flush Weekly Weighted Score, mean: −76%
15 mg, week 9
  Relative change (% from baseline) in Hot Flush Weekly Weighted Score, mean: −78%
15 mg, week 10
  Relative change (% from baseline) in Hot Flush Weekly Weighted Score, mean: −77%
15 mg, week 11
  Relative change (% from baseline) in Hot Flush Weekly Weighted Score, mean: −79%
15 mg, week 12
  Relative change in Hot Flush Weekly Weighted Score, LS adjusted mean: −0.7683
Week 4, 10 mg
  Covariate significance, covariate trt1, p_value, relative change in Hot Flush Weekly Weighted Score: 0.0037
Week 12, 10 mg
  Covariate significance, covariate trt1, p_value, relative change in Hot Flush Weekly Weighted Score: 0.0015
